The values below come from patent publication US20220348590A1, “CYCLOOXYGENASE-2 INHIBITORS AND USES THEREOF” (The Board Institute, Inc., priority 2019, published 2022).

“Also recorded” adds a separate entry of the source. Like-named read-outs stand apart in the source and are kept apart here.

The target of series [1] is T1, human recombinant COX2 (hCOX2) (UniProt P35354).
T1 sequence (P35354 1-604): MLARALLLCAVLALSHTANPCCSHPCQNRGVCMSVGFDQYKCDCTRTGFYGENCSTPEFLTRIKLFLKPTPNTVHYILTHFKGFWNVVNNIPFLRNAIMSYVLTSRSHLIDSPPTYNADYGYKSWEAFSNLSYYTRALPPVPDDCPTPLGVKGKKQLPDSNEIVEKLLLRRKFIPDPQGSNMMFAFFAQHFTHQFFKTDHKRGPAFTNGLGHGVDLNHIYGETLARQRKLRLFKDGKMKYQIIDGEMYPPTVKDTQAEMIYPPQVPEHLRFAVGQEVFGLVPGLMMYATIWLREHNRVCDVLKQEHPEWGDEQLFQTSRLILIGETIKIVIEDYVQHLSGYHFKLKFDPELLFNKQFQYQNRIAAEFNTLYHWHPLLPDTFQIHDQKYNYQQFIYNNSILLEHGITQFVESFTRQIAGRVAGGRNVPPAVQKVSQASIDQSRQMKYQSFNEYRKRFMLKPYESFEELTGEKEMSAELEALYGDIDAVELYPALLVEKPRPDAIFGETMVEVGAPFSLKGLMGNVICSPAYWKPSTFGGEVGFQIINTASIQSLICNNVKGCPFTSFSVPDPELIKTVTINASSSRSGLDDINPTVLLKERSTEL
The series is described as follows: LCMS-based COX2 enzymatic inhibition assay (PGE2 quantification). The arrangement: COX2 2 minutes pge2/pge2d4 area ratio Avg; other: 2 minutes; readout pge2/pge2d4 area ratio; average; COX2 2 minutes pge2/pge2d4 area ratio Avg; LLE; average LLE; COX2 2 minutes pge2 area (counts) Avg; readout pge2 area (counts); other: 2 min; "ovine COX2 (oCOX2), human recombinant COX2 (hCOX2)". The settings on record: 2 minutes; for IC50: average. Format: biochemical. An outline of the steps: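 PGE2 formed from arachidonic acid (final 5 μM, 2 min) was measured by LC-MS-MS against DMSO controls. Enzyme (oCOX-1 0.1 μg or hCOX2 0.2 μg) with hematin/epinephrine cofactors at pH 8.0 was given 10 min at 37 °C with compound first. Twelve-point curves run three times gave IC50.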

Series [2] is described as follows: in-vitro protein binding: free fraction / fraction unbound, matrix and species not given. Format: in vitro ADME. As to the method:
(§1) We have adapted a previously reported cyclooxygenase enzymatic assay utilizing LCMS quantification of PGE2 as the product of COX-1 and COX2 catalyzed conversion of arachidonic acid to evaluate the binding properties of newly synthesized ligands [Cao, 2011]. These optimized and miniaturized (384-well plates) LCMS-based COX-1 and COX2 enzymatic assays enabled us to quickly evaluate newly synthesized ligands for COX2 binding affinity and selectivity vs COX-1. Using a shorter ligand-enzyme incubation time in the LCMS assay (2 minutes vs 10 minutes) also permitted us to prioritize ligands with faster binding kinetics. Considering the relatively slow on-rate kinetics of known coxibs, due to their 3-step binding mechanism [Marnett, 2009], we believe that optimizing this critical parameter will be key to the successful development of a COX2 PET tracer. Using these enzymatic assays, we have evaluated>200 newly synthesized ligands against COX2 and >20 ligands against COX-1. Another critical property necessary for a good PET radiotracer is to have low non-specific binding (NSB) to increase the free fraction and maximize the signal to noise ratio. This property can be evaluated using in-vitro protein binding assays, and we have now evaluated>50 newly synthesized ligands in mouse, rat and human plasma protein binding (PPB) assays as well as >15 ligands in a mouse brain protein binding (BPB) assay.

The target of series [3] is T1, human recombinant COX2 (hCOX2). As to the kind of experiment: LCMS-based COX2 enzymatic inhibition assay (PGE2 quantification). Format: biochemical. The arrangement: improvement in potency; other: COX2 potency relative to MC1 / earlier ligand; comparator not always stated; other: vs MC1 (MC-1). The settings on record: COX2 potency relative to MC1 / earlier ligand; comparator not always stated. As for the experimental part: as §1
Ovine COX-1 (oCOX-1), ovine COX2 (oCOX2), human recombinant COX2 (hCOX2), arachidonic acid, PGE2, d4-PGD2, and […] (labeled with deuterium atoms at positions 3 and 4) were purchased from Cayman Chemicals (Ann Arbor, Mich.). The cofactors (−)epinephrine and hematin, and the COX inhibitors indomethacin, resveratrol and diclofenac were purchased from Sigma-Aldrich (St. Louis, Mo.). Celecoxib was purchased from 3B PharmaChem International (Wuhan, China). All organic solvents were HPLC grade or better and were purchased from Thermo Fisher (Hanover Park, Ill.). Formic acid was purchased from EMD Chemicals (San Diego, Calif.). Purified water was prepared by using a Millipore Milli-Q purification system (Millipore, Billerica, Mass.). All other chemicals and solvents were ACS reagent grade, unless stated otherwise.
In an Eppendorf tube, 146 μL of 100 mM Tris.HCl (pH 8.0) buffer, 2 μL of 100 μM hematin (co-factor) and 10 μL of 40 mM L-epinephrine (co-factor) were mixed at room temperature. […]
The concentration of PGE2 in each sample was measured using LC-MS-MS, and the percent of COX inhibition by each test solution was determined by comparing the amount of PGE2 produced in the experiment with that produced in the negative control incubation. The formation of PGD2 was measured for quality control purposes, since the levels of PGD2 should be proportional to those of PGE2. […]

For series [4], the target named is T2, COX2 (Rattus norvegicus, UniProt P35355).
T2 construct: in-vitro autoradiography in rat brain slices; from tissue; host or cells: rat brain slices
T2 sequence (P35355 18-604): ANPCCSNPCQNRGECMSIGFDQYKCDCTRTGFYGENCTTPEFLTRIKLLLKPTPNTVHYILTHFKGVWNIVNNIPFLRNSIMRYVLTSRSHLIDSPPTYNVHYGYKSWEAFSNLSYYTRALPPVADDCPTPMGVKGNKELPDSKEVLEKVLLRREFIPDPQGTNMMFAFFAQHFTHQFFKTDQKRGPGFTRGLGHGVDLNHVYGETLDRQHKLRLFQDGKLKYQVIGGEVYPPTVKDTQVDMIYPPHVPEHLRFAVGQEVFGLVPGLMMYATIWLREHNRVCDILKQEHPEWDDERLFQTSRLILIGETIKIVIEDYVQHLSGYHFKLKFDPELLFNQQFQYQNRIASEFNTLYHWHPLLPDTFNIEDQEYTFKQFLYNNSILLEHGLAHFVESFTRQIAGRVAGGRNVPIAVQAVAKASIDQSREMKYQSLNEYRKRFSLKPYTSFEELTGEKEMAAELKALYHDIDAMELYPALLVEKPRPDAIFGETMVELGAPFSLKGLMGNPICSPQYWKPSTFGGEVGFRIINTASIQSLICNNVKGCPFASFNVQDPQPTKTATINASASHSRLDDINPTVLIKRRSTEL
The series is described as follows: in-vitro autoradiography in rat brain slices (self-block). The settings on record: rat brain slices in vitro autoradiography, self-block, compared to earlier tracers. Format: binding. The source says:
Three ligands have been evaluated with in-vitro autoradiography in rat brain slices. Radiolabeling was accomplished via methylation of either a sulfinate precursor ([^11C]Rofecoxib), hydroxyl precursor ([^11C]MC1) or thiol precursor ([^11C]98) using [^11C]-methyl iodide and offers chemical flexibility for radiolabeling of future candidates. […] This translated into a ˜2-fold increase in COX2 specific binding in a rat brain slice in-vitro autoradiography. […] These properties enable us to better understand the contribution of potency and free fraction to the ligand's specific binding.
Three newly synthesized COX2 ligands were successfully radiolabeled using this strategy and first evaluated by in-vitro autoradiography in rat brain slices using self-block experiments (FIG. 5). […] [^11C]36 was also evaluated for specific binding using self-block experiments in human post-mortem brain tissues (globus pallidus) from three Huntington's disease (HD) patients (FIG. 6). COX2 protein levels were quantified using immunostaining and defined as high, medium and low, respectively.

A short description of series [5]: PET imaging in non-human primate (baboon). Format: in vivo. The source says:
This ideal pharmacokinetic profile in non-human primate positions these two optimized lead radiotracers for further evaluation using kinetic modeling with an arterial plasma input function and correction for plasma fraction unbound to obtain total volume of distribution (VT), the gold standard measure for PET quantification.

For series [6], the target named is T2, COX2. The series is described as follows: rat in-vivo PET imaging (brain pharmacokinetics, self-block).

As usually defined, the fraction unbound is free concentration divided by total concentration. Turning to `COc1ncc(-c2ccc(S(C)(=O)=O)cc2)nc1NCc1cccs1` [Compound 116], the “COX2 2 minutes pge2/pge2d4 area ratio Avg. LLE” value in series [1] (readout pge2/pge2d4 area ratio, average LLE) is 4.506. The IC50 in series [1] (readout pge2/pge2d4 area ratio, read-out: COX2 2 minutes pge2/pge2d4 area ratio Avg. IC50) was found to be 0.108 µM; in series [1] (readout pge2 area (counts), read-out: COX2 2 minutes pge2 area (counts) Avg. IC50), 0.0999 µM. Further, in series [1] (readout pge2 area (counts), average LLE), the “COX2 2 minutes pge2 area (counts) Avg. LLE” value was determined as 4.564. The fraction unbound in series [2] was 0.025. The improvement in potency in series [3] is reported as approximately 6 fold.
As for `CS(=O)(=O)c1ccc(-c2cccc(NCc3ccoc3)n2)cc1` [[^11C]47], at COX2 [4], the specific binding result is on record as “significantly increased specific binding”. Further, the “brain uptake and clearance” value in series [5] was “high, fast and homogeneous brain uptake along with fast clearance; also recorded: high, rapid and homogeneous brain uptake followed by fast clearance”. On COX2 [6] (rat PET, self-block experiment, between 30-60 minutes), the “specific binding in vivo” value is reported as “modest but consistent specific binding”. The “brain pharmacokinetic (brain uptake and clearance)” value on COX2 [6] (rat in-vivo PET imaging) is “high and rapid brain uptake followed by fast clearance”.
For `COc1cc(OCc2cccs2)nc(-c2ccc(S(C)(=O)=O)cc2)n1` [Compound 331], in series [3], the improvement in potency is 10 fold.
